Results reported in patent publication US20240067702A1, “LACTAM-MODIFIED P[…]” (DONGBAO PURPLE STAR (HANGZHOU) BIOPHARMACEUTICAL CO., LTD., priority 2020, published 2024).
*1 amine or outer side, *2 acyl side, *3 side chain or, on linkers, in order; H or OH if unused. Where a SMILES comes first, the peptide text is derived from it. Bridges are numbered along the chain shown (N, C = ends). Side-chain parts run from the residue outwards. [ ]: non-standard residue; d: D form. The star is where a group is joined. C20 diacid = O=C(O)CCCCCCCCCCCCCCCCCCC(=O)*; γGlu = O=C(O)[C@H](CCC(=O)[*:2])N[*:1]; AEEA = NCCOCCOCC(=O)O; Aib = CC(C)(N)C(=O)O

Experiments:
[1] = Kidney homogenate stability (BHS) test; assay type: in vitro ADME; conditions: normal mouse kidney homogenate, 37° C.; read-out: BHS (T1/2 (min))
Procedure: To study the stability of the test compounds in normal mouse kidney homogenate.
1. Before the experiment, the frozen kidney homogenate was thawed in a 37° C. water bath.
2. Test compounds: 10 mM stock solution was diluted with DMSO to prepare 1 mM intermediate solution;
3. test compounds: 1 mM intermediate solution was diluted with DMSO to prepare 50 μM dosing solution;
4. at each time point (0, 10, 30, 60, 120, 180, 240 min), 100 μL of 4% H3PO4 and 800 μL of stop solution were added to precipitate the protein, and mixed thoroughly.
5. The samples were centrifuged at 4000 rpm for 10 min, and 100 μL of supernatant was taken from each well to the plate. The samples were shaken at 800 rpm for approximately 10 min before submitting for LC-MS/MS test.

human plasma albumin = test: Plasma protein binding (PPB) test, human; assay type: in vitro ADME; parameters: key: NA means the plasma-protein binding is too high, and no free drug can be detected under a normal concentration of plasma protein; conditions: ultracentrifugation
Procedure: (§1) To study the binding of the test compounds to human/mouse plasma albumin.
(§2) 1. Matrix preparation: On the day of the experiment, the plasma was thawed in cold water and centrifuged at 3220 rpm for 5 min to remove all blood clots. The pH of the obtained plasma was measured and adjusted to 7.4±0.1 using 1% phosphoric acid or 1N sodium hydroxide as needed.
(§3) 2. Dilution steps of the test compounds: The test compounds were dissolved in dimethyl sulfoxide (DMSO) to prepare stock solutions at concentrations of 10 mM and 2 mM, respectively. A 40 μM working solution was prepared by diluting 2 μL of the stock solution (2 mM) with 98 μL of DMSO. A 400 μM working solution of the control compound was prepared by diluting 10 μL of the stock solution with 240 μL of DMSO. The working solution of the compound (5 μL) was mixed with the blank matrix (995 μL) at a ratio of 1:200 to prepare the loading matrix.
3.1 An equal amount of 30 μL of the loading matrix (n=2) was transferred to the sample collection plate to prepare samples of time 0 (TO) for residue determination. The samples were immediately matched to the corresponding blank buffer in a final volume of 60 μL with a 1:1 volume ratio of plasma to buffer in each well. Then, 60 μL of 4% H3PO4 in H2O and 480 μL of stop solution containing an internal standard were then added to the TO samples of the test compounds. […]

[2] = Pharmacokinetic evaluation in cynomolgus monkeys; assay type: in vivo; conditions: cynomolgus monkey, plasma, 0.02 mg/kg, single SC 0.02 mpk
Procedure: To test the pharmacokinetics of compounds in cynomolgus monkeys in vivo
The pharmacokinetic characteristics of the compounds in mammals after intravenous injection and subcutaneous injection were tested according to the standard protocol. In the experiment, the candidate compounds were formulated into clear solutions, and a single subcutaneous injection (SC, 0.02 mpk) was given to the cynomolgus monkeys. The vehicle for subcutaneous injection was citrate buffer (20 mM, pH=7). Whole blood was collected and prepared to obtain plasma. Drug concentration was analyzed by LC-MS/MS method, and pharmacokinetic parameters were calculated by Phoenix WinNonlin software.

[3] = Pharmacokinetic evaluation in C57BL/6 mice; assay type: in vivo; conditions: mouse, plasma, 0.048 mg/kg
Procedure: To test the pharmacokinetics of compounds in C57BL/6 mice in vivo
The pharmacokinetic characteristics of the compounds in rodents after intravenous injection and subcutaneous injection were tested according to the standard protocol. In the experiment, the candidate compounds were formulated into clear solutions, and a single intravenous injection (IV, 0.048 mpk) and subcutaneous injection (SC, 0.048 mpk) were given to the mice. The vehicle for intravenous injection was PBS buffer (pH=7), and the vehicle for subcutaneous injection was citrate buffer (20 mM, pH=7). Whole blood was collected and prepared to obtain plasma. Drug concentration was analyzed by LC-MS/MS method, and pharmacokinetic parameters were calculated by Phoenix WinNonlin software.

mouse plasma albumin = test: Plasma protein binding (PPB) test, mouse; assay type: in vitro ADME; parameters: key to PPB % unbound (H/M), M: NA means the plasma-protein binding is too high, and no free drug can be detected under a normal concentration of plasma protein; conditions: ultracentrifugation
Procedure: as §1, §2, §3
3.1 An equal amount of 30 μL of the loading matrix (n=2) was transferred to the sample collection plate to prepare samples of time 0 (TO) for residue determination. The samples were immediately matched to the corresponding blank buffer in a final volume of 60 μL with a 1:1 volume ratio of plasma to buffer in each well. Then, 60 μL of 4% H3PO4 in H2O and 480 μL of stop solution containing an internal standard were then added to the TO samples of the test compounds. They were then stored at 2-8° C. with other samples pending for further processing.
3.2 The remaining plasma samples were pre-incubated in a carbon dioxide incubator at 37±1° C. for 30 min. The prepared protein-free samples (F samples) and loading matrix samples (230 μL) were transferred to polycarbonate tubes (n=2) and ultracentrifuged at 37° C. and 155000×g (35000 rpm) for 4 hours.
3.3 To prepare T samples (test samples), an additional matrix-containing sample was transferred to a separate 96-well plate (sample incubation plate) and incubated at 37° C. for 4 hours.
3.4 After centrifugation, 30 μL of protein-free sample and 30 μL of T sample were transferred from the second layer of supernatant (below the upper layer) to a new sample collection plate. Each sample was mixed with the corresponding blank buffer or matrix in a final volume of 60 μL with a matrix:buffer volume ratio of 1:1. 60 μL of 4% H3PO4 aqueous solution and 480 μL of stop solution (containing internal standard) were added to all samples. The mixture was centrifuged at 4000 rpm for 20 min, and 100 μL of the supernatant of each sample was taken for LC-MS/MS analysis.

GLP-1R = biological target: T1, GLP-1R (Homo sapiens, UniProt P43220); test: GLP-1R agonist activity test in vitro (cAMP assay); assay type: cell-based; conditions: HEK293 host cell
T1 construct: host or cells: HEK293
T1 sequence (P43220 24-463): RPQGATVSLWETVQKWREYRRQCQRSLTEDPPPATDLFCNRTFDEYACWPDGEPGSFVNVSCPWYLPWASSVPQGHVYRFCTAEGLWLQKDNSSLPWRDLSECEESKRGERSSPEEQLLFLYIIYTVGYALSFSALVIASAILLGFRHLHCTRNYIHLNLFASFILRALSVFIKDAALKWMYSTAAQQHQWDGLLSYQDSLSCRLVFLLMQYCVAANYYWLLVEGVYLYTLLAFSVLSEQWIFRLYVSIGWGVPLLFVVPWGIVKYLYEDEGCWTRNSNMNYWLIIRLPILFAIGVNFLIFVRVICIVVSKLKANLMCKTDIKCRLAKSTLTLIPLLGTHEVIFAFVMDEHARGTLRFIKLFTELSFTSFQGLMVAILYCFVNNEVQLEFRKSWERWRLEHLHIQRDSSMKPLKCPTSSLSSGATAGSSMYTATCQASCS
Procedure: The cell strains were constructed by Shanghai WuXi AppTec.
The test compound was serially diluted 4-fold with 10 points. The initial concentration was 30 μM, and the dilution was completed with Bravo.
1) 100 nL of the compound was transferred to OptiPlate-384 plate using Echo.
7) The GLP-1R/GIPR cell concentration was diluted to 2.0*10^5/mL with the experimental buffer.
8) […] of the diluted cell suspension was transferred into the OptiPlate-384 plate.
9) The diluted cell suspension was incubated at room temperature for 30 minutes.
2) 10 μL of cAMP detection reagent was added.
3) The OptiPlate-384 plate was covered with TopSeal-A film and incubated at room temperature for 60 minutes.
TopSeal-A was removed and read in EnVision.

SMILES: CC[C@H](C)[C@H](NC(=O)[C@H](CC(C)C)NC(=O)[C@H](Cc1c[nH]c2ccccc12)NC(=O)[C@@H]1CCC(=O)NCCCC[C@H](NC(=O)[C@H](CCC(N)=O)NC(=O)[C@H](C)NC(=O)[C@H](CCCCNC(=O)COCCOCCNC(=O)COCCOCCNC(=O)CC[C@H](NC(=O)CCCCCCCCCCCCCCCCCCC(=O)O)C(=O)O)NC(=O)[C@H](CCCCN)NC(=O)[C@H](CC(=O)O)NC(=O)[C@H](CC(C)C)NC(=O)C(C)(C)NC(=O)[C@@H](NC(=O)[C@H](CO)NC(=O)[C@H](Cc2ccc(O)cc2)NC(=O)[C@H](CC(=O)O)NC(=O)[C@H](CO)NC(=O)[C@@H](NC(=O)[C@H](Cc2ccccc2)NC(=O)[C@@H](NC(=O)CNC(=O)[C@H](CCC(=O)O)NC(=O)C(C)(C)NC(=O)[C@@H](N)Cc2ccc(O)cc2)[C@@H](C)O)[C@@H](C)O)[C@@H](C)CC)C(=O)N[C@@H](C)C(=O)N[C@@H](Cc2ccccc2)C(=O)N[C@@H](C(C)C)C(=O)N1)C(=O)N[C@@H](C)C(=O)NCC(=O)NCC(=O)N1CCC[C@H]1C(=O)N[C@@H](CO)C(=O)N[C@@H](CO)C(=O)NCC(=O)N[C@@H](C)C(=O)N1CCC[C@H]1C(=O)N1CCC[C@H]1C(=O)N1CCC[C@H]1C(=O)N[C@@H](CO)C(N)=O [WX-001] (H-Y[Aib]EGTFTSDYSI[Aib]LDKK([AEEA-AEEA-γGlu-C20 diacid])AQKAFVEWLIAGGPSSGAPPPS-NH2; lactam 20-24)
- half-life [1]: 14 min
- PPB % unbound (H/M), H (human plasma albumin): NA/NA
- Cmax [2]: 30 nM
- Tmax [2]: 21 h
- half-life ([2]; read-out: Half-life T1/2 (converted)): 80 h
- AUC(0-t) ([2]; read-out: SC Concentration Integral AUC0-240 h): 3.97 µM·h
- half-life ([3]; 0.048 mpk IV/SC, read-out: Half-life T1/2 (converted)): 15.5 h
- clearance ([3]; IV 0.048 mpk): 5.28 mL/h/kg
- AUC(0-t) ([3]; SC 0.048 mpk, read-out: SC Concentration Integral AUC0-72 h): 1.55 µM·h
- bioavailability ([3]; subcutaneous, SC 0.048 mpk vs IV 0.048 mpk, read-out: Bioavailability F): 85.5%
- PPB % unbound (H/M), M (mouse plasma albumin): NA/NA
- EC50 (GLP-1R; GLP-IR Agonist Activity EC50 (+) 1% HSA, with 1% HSA): 3.66 nM
- EC50 (GLP-1R; GLP-IR Agonist Activity EC50 (−) 1% HSA, without 1% HSA): 0.014 nM
